Laboratory results from patent publication US9024032B2, “Inhibitors of catechol O-methyl transferase and their use in the treatment of psychotic disorders” (Merck Sharp & Dohme Corp., priority 2010, dated 2015).

What follows are compounds tested against T1, purified human COMT enzyme of the Val158 variant (membrane-bound MB-COMT) (Homo sapiens, UniProt P21964) (assay: MB-COMT inhibition, Esculetin or Fluorescence Polarization assay). Settings: not given.
T1 construct: 6xHis or 10xHis (C)
T1 sequence (P21964 1-271): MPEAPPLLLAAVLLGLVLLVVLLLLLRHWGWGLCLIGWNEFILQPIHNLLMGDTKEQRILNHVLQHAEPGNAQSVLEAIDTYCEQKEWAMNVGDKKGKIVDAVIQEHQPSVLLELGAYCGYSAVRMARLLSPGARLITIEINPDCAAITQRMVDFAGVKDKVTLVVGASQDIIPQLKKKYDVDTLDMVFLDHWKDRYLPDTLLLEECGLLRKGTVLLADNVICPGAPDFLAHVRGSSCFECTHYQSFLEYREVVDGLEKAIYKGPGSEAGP
Format: biochemical

IC50 [nM] | Structure (SMILES)
64 | COc1ccc(-c2nc3cc(-n4ccc(=O)c(O)c4)ccc3[nH]2)cc1 [Example 2, 3-hydroxy-1-[2-(4-methoxyphenyl)-1H-benzimidazol-5-yl]pyridin-4(1H)-one]

Same assay, conditions: Esculetin or Fluorescence Polarization assay; human Val158 variant; read-out: MB-COMT IC50-

IC50 [nM] | Structure (SMILES)
41 | CC(O)c1cc(=O)c(O)cn1-c1cccc(-c2c(Cl)cnc3[nH]ccc23)c1 (single isomer, unassigned) [Example 13, 1-[3-(5-chloro-1H-pyrrolo[2,3-b]pyridin-4-yl)phenyl]-5-hydroxy-2-(1-hydroxyethyl)-pyridin-4(1H)-one]
75 | Nc1cc(=O)c(O)cn1-c1cccc(-c2ccccc2)c1 [Example 3, 2-Amino-1-(biphenyl-3-yl)-5-hydroxypyridin-4(1H)-one]
100 | CNc1cc(=O)c(O)cn1-c1cccc(-c2ccccc2)c1 [Example 4, 1-(Biphenyl-3-yl)-5-hydroxy-2-(methylamino)pyridin-4(1H)-one]
21 | O=c1ccn(-c2cccc(-c3cccc4[nH]ncc34)n2)cc1O [Example 8, 3-Hydroxy-6′-(1H-indazol-4-yl)-4H-1,2′-bipyridin-4-one]
8 | O=c1ccn(-c2nccc(-c3c(Cl)cnc4[nH]ccc34)c2F)cc1O [Example 9, 4′-(5-chloro-1H-pyrrolo[2,3-b]pyridin-4-yl)-3′-fluoro-3-hydroxy-4H-1,2′-bipyridin-4-one]
191 | Cc1cc(=O)c(O)cn1-c1cccc2c1ncn2Cc1c(F)cccc1Cl [Example 10, 1-[1-(2-Chloro-6-fluorobenzyl)-1H-benzimidazol-4-yl]-5-hydroxy-2-methylpyridin-4(1H)-one]
87 | COc1ncc(F)cc1C(O)Cc1cc(=O)c(O)cn1-c1cccc(-c2ccccc2)c1 (centres unmarked) [Example 11, 1-biphenyl-3-yl-2-[2-(5-fluoro-2-methoxypyridin-3-yl)-2-hydroxyethyl]-5-hydroxypyridin-4(1H)-one]
26 | O=c1cc(C(O)C#Cc2ccccc2)n(-c2cccc(-c3c(Cl)cnc4[nH]ccc34)c2)cc1O (centres unmarked) [Example 12, 1-[3-(5-chloro-1H-pyrrolo[2,3-b]pyridin-4-yl)phenyl]-5-hydroxy-2-(1-hydroxy-3-phenylprop-2-yn-1-yl)pyridin-4(1H)-one]
226 | CC(O)c1cc(=O)c(O)cn1-c1cccc(-c2cncc3ccccc23)c1 (centres unmarked) [Example 14, 5-hydroxy-2-(1-hydroxyethyl)-1-[3-(isoquinolin-4-yl)phenyl]pyridin-4(1H)-one]
70 | O=c1cc(C(O)C(F)(F)F)n(-c2cccc(-c3cccc4ncccc34)c2)cc1O (centres unmarked) [Example 15, 5-hydroxy-1-[3-(quinolin-5-yl)phenyl]-2-(2,2,2-trifluoro-1-hydroxyethyl)pyridin-4(1H)-one]
